According to US20200405699A1, “TREATING SICKLE CELL DISEASE WITH A PYRUVATE KINASE R ACTIVATING COMPOUND” (FORMA Therapeutics, Inc., priority 2018, published 2020):

What was measured:
[1] = SAD/MAD study in healthy volunteers, safety; format: in vivo, human; conditions: SAD and MAD cohorts of healthy volunteers
Description: This is a first-in-human (FIH), Phase 1 study of Compound 1 that will characterize the safety, PK, and PD of Compound 1 after a single dose and after repeated dosing first in healthy adult volunteers and then in adolescents or adults with sickle cell disease. Initially, a dose range of Compound 1 in single ascending dose (SAD) escalation cohorts will be explored in healthy subjects. Enrollment of healthy subjects into 2-week multiple ascending dose (MAD) escalation cohorts will be initiated once the safety and PK from at least two SAD cohorts is available to inform the doses for the 2-week MAD portion of the study. The MAD cohorts will then run in parallel to the single dose cohorts. A single dose cohort is planned to understand food effects (FE) on the PK of Compound 1. […] Multiple dose studies in SCD subjects will then be initiated upon completion of MAD studies in healthy volunteers. Compound 1 will be administered in 25 mg and 100 mg tablets delivered orally. Four healthy SAD cohorts were evaluated at doses of 200, 400, 700, and 1000 mg, and four healthy MAD cohorts received 200 to 600 mg total daily doses for 14 days at QD or BID dosing (100 mg BID, 200 mg BID, 300 mg BID, and 400 mg QD). In the food effect (FE) cohort, 10 healthy subjects received 200 mg of Compound 1 QD with and without food.

[2] = system: 2,3-DPG levels in whole blood; test: PK/PD study in wild type mice, 2,3-DPG levels in blood; format: in vivo, Balb/c mice; conditions: oral QD x7, doses ≥120 mg/kg (120 and 240 mg/kg), blood 24 h after dosing
Method: (§1) Two pharmacokinetic (PK)/phamacodynamic (PD) studies were conducted in Balb/c mice that were administered Compound 1 once daily by oral gavage (formulated in 10% Cremophor EL/10% PG/80% DI water) for 7 days (QD×7) at doses of 0 (vehicle), 3.75, 7.5, 15, 30, 60 mg/kg (Study 1); 0 (vehicle), 7.5, 15, 30, 60, 120, or 240 mg/kg (Study 2). On the 7th day, whole blood was collected 24 hours after dosing and snap frozen. Samples were later thawed and analyzed by LC/MS for 2,3-DPG and ATP levels.

[3] = molecular target: PKR(G332S) (Homo sapiens, UniProt P30613, G332S); test: Luminescence Assay (Kinase Glo Plus), PKR G332S; format: biochemical; conditions: read-out: AC50 (PKRG332S)
PKR(G332S), sequence (P30613 whole entry G332S): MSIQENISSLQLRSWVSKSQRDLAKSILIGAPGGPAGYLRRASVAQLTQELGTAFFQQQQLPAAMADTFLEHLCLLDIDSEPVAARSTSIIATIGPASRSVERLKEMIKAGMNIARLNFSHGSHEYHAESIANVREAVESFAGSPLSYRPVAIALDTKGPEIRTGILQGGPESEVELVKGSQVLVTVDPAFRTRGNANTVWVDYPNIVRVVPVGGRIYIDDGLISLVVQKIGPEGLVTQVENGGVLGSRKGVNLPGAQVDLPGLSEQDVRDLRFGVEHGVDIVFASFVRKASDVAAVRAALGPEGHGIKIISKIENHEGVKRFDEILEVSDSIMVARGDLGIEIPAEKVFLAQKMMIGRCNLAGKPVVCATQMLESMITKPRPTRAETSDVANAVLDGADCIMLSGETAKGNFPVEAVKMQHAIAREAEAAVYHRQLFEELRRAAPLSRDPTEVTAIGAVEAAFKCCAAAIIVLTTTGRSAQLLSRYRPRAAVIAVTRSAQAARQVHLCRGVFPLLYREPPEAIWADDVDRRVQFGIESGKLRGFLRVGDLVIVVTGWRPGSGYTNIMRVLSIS
Method: For each tested compound, the ability to activate PKR was determined using the following Luminescence Assay. The effect of phosphorylation of adenosine-5′-diphosphate (ADP) by PKR is determined by the Kinase Glo Plus Assay (Promega) in the presence or absence of FBP (D-fructose-1,6-diphosphate; BOC Sciences, CAS: 81028-91-3) as follows. Unless otherwise indicated, all reagents are purchased from Sigma-Aldrich. All reagents are prepared in buffer containing 50 mM Tris-HCl, 100 mM KCl, 5 mM MgCl2, and 0.01% Triton X100, 0.03% BSA, and 1 mM DTT. Enzyme and PEP (phosphoenolpyruvate) are added at 2× to all wells of an assay-ready plate containing serial dilutions of test compounds or DMSO vehicle. Final enzyme concentrations for PKR(wt), PKR(R510Q), and PKR(G332S) are 0.8 nM, 0.8 nM, and 10 nM respectively. Final PEP concentration is 100 μM. The Enzyme/PEP mixture is incubated with compounds for 30 minutes at RT before the assay is initiated with the addition of 2×ADP and KinaseGloPlus. Final concentration of ADP is 100 μM. […] For assays containing FBP, that reagent is added at 30 μM upon reaction initiation. Reactions are allowed to progress for 45 minutes at RT until luminescence is recorded by the BMG PHERAstar FS Multilabel Reader. The compound is tested in triplicate at concentrations ranging from 42.5 μM to 2.2 nM in 0.83% DMSO. AC50 measurements were obtained by the standard four parameter fit algorithm of ActivityBase XE Runner (max, min, slope and AC50). The AC50 value for a compound is the concentration (μM) at which the activity along the four parameter logistic curve fit is halfway between minimum and maximum activity.
As set forth in Tables 2 and 3 below and in FIG. 1, AC50 values are defined as follows: ≤0.1 μM (+++); >0.1 μM and ≤1.0 μM (++); >1.0 μM and ≤40 μM (+); >40 μM (0).

[4] = molecular target: T1, wt-PKR in mature human erythrocytes (Homo sapiens, UniProt P30613); test: PKR activation in human red blood cells ex vivo (Biovision Pyruvate Kinase Assay); format: cell-based; conditions: human RBCs
T1 construct: evaluated in purified RBCs purchased from Research Blood Components; host or cells: purified human red blood cells from donors
T1 sequence (P30613 whole entry): as the sequence (P30613 whole entry G332S) above, with S332G counted along it
Method: The activation of wt-PKR by Compound 1 in mature human erythrocytes ex vivo was evaluated in purified RBCs purchased from Research Blood Components. Cells treated with Compound 1 for 3 hr in glucose-containing media were washed, lysed, and assayed using a Biovision Pyruvate Kinase Assay (K709-100). The assay was repeated multiple times to account for donor-to-donor variability and the relatively narrow dynamic range.

[5] = PK/PD study in wild type mice, tolerability; format: in vivo; conditions: oral QD x7, both studies
Method: as §1

[6] = molecular target: PKR-R510Q (Homo sapiens, UniProt P30613, R510Q); test: Enzyme assay of Example 3 (kinetic parameters, activation), PKR-R510Q; format: biochemical; conditions: for Vmax (normalized): 2 μM Compound 1, normalized within row
PKR-R510Q, sequence (P30613 whole entry R510Q): as the sequence (P30613 whole entry G332S) above, with S332G, R510Q counted along it
Method: Tests were conducted in the presence and absence of fructose-1,6-bisphosphate (FBP), a known allosteric activator of PKR.

## O=C([C@H](CO)c1ccccc1)N1CC2=C(C1)CN(S(=O)(=O)c1cnc3c(c1)OCCO3)C2 (single isomer, unassigned) [Compound 1]
[1]
  Serious adverse events / AEs leading to withdrawal: No serious adverse events (SAEs) or AEs leading to withdrawal were reported
[2]
  Reduction of 2,3-DPG levels: > 30%
[3]
  AC50: 100 to 1000 nM
[4]; 3 hr treatment, individual replicates
  EC50: < 50 nM
[4]; mean of replicates
  Max-Min (%), Mean (mean maximum activation increase): <100%
[4]; mean of replicates, read-out: Max-Min (%), Mean (mean maximum activation increase)
  Emax: < 100%
[5]
  Adverse clinical signs: No adverse clinical signs were observed
  Body weight change compared with vehicle group: no differences in body weight change
[6]; 30 μM FBP
  Vmax (normalized): 1.29
[6]; No FBP
  Vmax (normalized): 1.56
[6]; PEP at or below Km
  AC50: < 100 nM
[6]; PEP at or below Km, rate of ATP formation
  Maximum-fold Activation: <3.0
